Columns and labels:
[1] = test system: Puccinia recondita f. sp. tritici; test: Test B: wheat leaf rust, spray on wheat seedlings, disease control rating; assay type: in vivo; settings: Rate 10 ppm, 100 = 100% disease control, 0 = no disease control relative to the controls; for pest or weed control at 10 ppm: Puccinia recondita, 192 h
Excerpt: (§1) General protocol for preparing test suspensions for Tests A-F: the test compounds were first dissolved in acetone in an amount equal to 3% of the final volume and then suspended at the desired concentration (in ppm) in acetone and purified water (50/50 mix by volume) containing 250 ppm of the surfactant PEG400 (polyhydric alcohol esters). The resulting test suspensions were then used in Tests A-F.
The test solution was sprayed to the point of run-off on wheat seedlings. The following day the seedlings were inoculated with a spore suspension of Puccinia recondita f. sp. tritici (the causal agent of wheat leaf rust) and incubated in a saturated atmosphere at 20° C. for 24 h, and then moved to a growth chamber at 20° C. for 7 days, after which time disease ratings were made.
(§2) A rating of 100 indicates 100% disease control and a rating of 0 indicates no disease control (relative to the controls). A dash (-) indicates the compound was not tested.

Phakopsora pachyrhizi = test: Test D: Asian soybean rust, spray on soybean seedlings, disease control rating; assay type: in vivo; settings: Rate 10 ppm, 100 = 100% disease control, 0 = no disease control relative to the controls; for pest or weed control at 10 ppm: Phakopsora pachyrhizi, 216 h
Excerpt: as §1
The test solution was sprayed to the point of run-off on soybean seedlings. The following day the seedlings were inoculated with a spore suspension of Phakopsora pachyrhizi (the causal agent of Asian soybean rust) and incubated in a saturated atmosphere at 22° C. for 24 h and then moved to a growth chamber at 22° C. for 8 days, after which time visual disease ratings were made.
as §2

COC(=O)NCc1cc(-c2ccn(-c3c(F)cc(NC(=O)OC)cc3F)n2)ccc1C [Compound 24] was tested, and the “Test B disease control rating” value [1] was 0% and the “Test D disease control rating” value (Phakopsora pachyrhizi) was 75%.

COC(=O)NCc1cc(-c2ccn(-c3c(Cl)cccc3Br)n2)ccc1C [Compound 60] gave a pest or weed control at 10 ppm [1] of 68% and a pest or weed control at 10 ppm (Phakopsora pachyrhizi) of 100%.

With C=CCOc1cc(F)c(-n2ccc(-c3ccc(C)c(CNC(=O)OC)c3)n2)c(F)c1 [Compound 94] the “Test B disease control rating” value [1] was 85% and the “Test D disease control rating” value (Phakopsora pachyrhizi) was 99%.

For COC(=O)NCc1cc(-c2ccn(-c3c(F)cc(C(C)O)cc3F)n2)ccc1C (centres unmarked) [Compound 96], the “Test B disease control rating” value [1] was 68% and the “Test D disease control rating” value (Phakopsora pachyrhizi) was 79%.

COC(=O)NCc1cc(-c2ccn(-c3c(F)cccc3Cl)n2)ccc1C [Compound 47] gave a pest or weed control at 10 ppm [1] of 74% and a pest or weed control at 10 ppm (Phakopsora pachyrhizi) of 100%.

Work on COC(=O)NCc1cc(-c2ccn(-c3c(C)cc(Cl)cc3C)n2)ccc1C [Compound 49] yielded a pest or weed control at 10 ppm [1] of 68% and a pest or weed control at 10 ppm (Phakopsora pachyrhizi) of 99%.

CCC(C)Oc1cc(F)c(-n2ccc(-c3ccc(C)c(CNC(=O)OC)c3)n2)c(F)c1 (centres unmarked) [Compound 92] was tested, and the “Test B disease control rating” value [1] was 100% and the “Test D disease control rating” value (Phakopsora pachyrhizi) was 100%.

In the case of COC(=O)NCc1cc(-c2ccn(-c3c(F)cc(NC(C)=O)cc3F)n2)ccc1C [Compound 25], the “Test B disease control rating” value [1] is reported as 8% and the “Test D disease control rating” value (Phakopsora pachyrhizi) is reported as 81%.

For COC(=O)NCc1cc(-c2ccn(-c3c(Cl)cc(Br)cc3Cl)n2)ccc1C [Compound 56], the pest or weed control at 10 ppm [1] was 80% and the pest or weed control at 10 ppm (Phakopsora pachyrhizi) was 100%.

COC(=O)NCc1cc(-c2ccn(-c3c(F)cc(SC)cc3SC)n2)ccc1C [Compound 28] was tested, and the pest or weed control at 10 ppm [1] was 0% and the pest or weed control at 10 ppm (Phakopsora pachyrhizi) was 100%.

In the case of COC(=O)NCc1cc(-c2ccn(-c3c(F)cc(Br)cc3Cl)n2)ccc1C [Compound 50], the pest or weed control at 10 ppm [1] is reported as 100% and the pest or weed control at 10 ppm (Phakopsora pachyrhizi) is reported as 100%.

With COC(=O)NCc1cc(-c2ccn(-c3c(F)cc(C(C)(C)O)cc3F)n2)ccc1C [Compound 95] the “Test B disease control rating” value [1] was 0% and the “Test D disease control rating” value (Phakopsora pachyrhizi) was 53%.

With COC(=O)NCc1cc(-c2ccn(-c3c(F)cc(OCC4CCCO4)cc3F)n2)ccc1C (centres unmarked) [Compound 23] the “Test B disease control rating” value [1] was 68% and the “Test D disease control rating” value (Phakopsora pachyrhizi) was 25%.

COC(=O)NCc1cc(-c2ccn(-c3c(F)cc(C(=O)OC)cc3F)n2)ccc1C [Compound 70, methyl 3,5-difluoro-4-[3-[3-[[(methoxycarbonyl)amino]methyl]-4-methylphenyl]-1H-pyrazol-1-yl]benzoate] showed a pest or weed control at 10 ppm [1] of 74% and a pest or weed control at 10 ppm (Phakopsora pachyrhizi) of 81%.

COC(=O)NCc1cc(-c2ccn(-c3c(Br)cccc3Br)n2)ccc1C [Compound 58] showed a pest or weed control at 10 ppm [1] of 68% and a pest or weed control at 10 ppm (Phakopsora pachyrhizi) of 100%.

For COC(=O)NCc1cc(-c2ccn(-c3c(F)cc(N)cc3F)n2)ccc1C [Compound 5, methyl N-[[5-[1-(4-amino-2,6-difluorophenyl)-1H-pyrazol-3-yl]-2-methylphenyl]methyl]carbamate], the pest or weed control at 10 ppm [1] was 0% and the pest or weed control at 10 ppm (Phakopsora pachyrhizi) was 0%.

With COC(=O)NCc1cc(-c2ccn(-c3c(F)cc(CC(C)=O)cc3F)n2)ccc1C [Compound 75] the “Test B disease control rating” value [1] was 0% and the “Test D disease control rating” value (Phakopsora pachyrhizi) was 87%.

In the case of COC(=O)NCc1cc(-c2ccn(-c3c(F)cc(OC(C)=O)cc3F)n2)ccc1C [Compound 18], the “Test B disease control rating” value [1] is reported as 41% and the “Test D disease control rating” value (Phakopsora pachyrhizi) is reported as 65%.

Compound COC(=O)NCc1cc(-c2ccn(-c3c(Cl)cc(N)cc3Cl)n2)ccc1C [Compound 55] has a pest or weed control at 10 ppm [1] of 0% and a pest or weed control at 10 ppm (Phakopsora pachyrhizi) of 0%.

In the case of COC(=O)NCc1cc(-c2ccn(-c3c(F)cc(OCC4COC4)cc3F)n2)ccc1C [Compound 32], the “Test B disease control rating” value [1] is reported as 0% and the “Test D disease control rating” value (Phakopsora pachyrhizi) is reported as 77%.

Compound COC(=O)NCc1cc(-c2ccn(-c3c(C)cc(N)cc3C)n2)ccc1C [Compound 38] has a pest or weed control at 10 ppm [1] of 0% and a pest or weed control at 10 ppm (Phakopsora pachyrhizi) of 0%.

Compound COC(=O)NCc1cc(-c2cnn(-c3c(F)cc(Cl)cc3F)n2)ccc1C [Compound 117, methyl N-[[5-[2-(4-chloro-2,6-difluorophenyl)-2H-1,2,3-triazol-4-yl]-2-methylphenyl]methyl]carbamate] has a pest or weed control at 10 ppm [1] of 100% and a pest or weed control at 10 ppm (Phakopsora pachyrhizi) of 100%.

Work on COC(=O)NCc1cc(-c2ccn(-c3c(SC)cc(F)cc3SC)n2)ccc1C [Compound 20] yielded a pest or weed control at 10 ppm [1] of 0% and a pest or weed control at 10 ppm (Phakopsora pachyrhizi) of 0%.

CON=Cc1cc(F)c(-n2ccc(-c3ccc(C)c(CNC(=O)OC)c3)n2)c(F)c1 [Compound 79] was tested, and the “Test B disease control rating” value [1] was 100% and the “Test D disease control rating” value (Phakopsora pachyrhizi) was 100%.

For C=C(C)c1cc(F)c(-n2ncc(-c3ccc(C)c(CNC(=O)OC)c3)n2)c(F)c1 [Compound 110], the “Test B disease control rating” value [1] was 95% and the “Test D disease control rating” value (Phakopsora pachyrhizi) was 100%.

COC(=O)NCc1cc(-c2ccn(-c3c(F)cc(OC(=O)OC)cc3F)n2)ccc1C [Compound 17] was tested, and the “Test B disease control rating” value [1] was 0% and the “Test D disease control rating” value (Phakopsora pachyrhizi) was 0%.

For COC(=O)NCc1cc(-c2ccn(-c3c(F)cc(C4OCCCO4)cc3F)n2)ccc1C [Compound 134], the pest or weed control at 10 ppm [1] was 89% and the pest or weed control at 10 ppm (Phakopsora pachyrhizi) was 100%.

In the case of COC(=O)NCc1cc(-c2ccn(-c3c(F)cc(OC4CCCCC4)cc3F)n2)ccc1C [Compound 91], the “Test B disease control rating” value [1] is reported as 86% and the “Test D disease control rating” value (Phakopsora pachyrhizi) is reported as 79%.

In the case of COC(=O)NCc1cc(-c2ccn(-c3c(C)cc(Br)cc3C)n2)ccc1C [Compound 48], the pest or weed control at 10 ppm [1] is reported as 68% and the pest or weed control at 10 ppm (Phakopsora pachyrhizi) is reported as 99%.

Compound COC(=O)NCc1cc(-c2ccn(-c3c(F)cc(Cl)cc3Cl)n2)ccc1C [Compound 51] has a pest or weed control at 10 ppm [1] of 100% and a pest or weed control at 10 ppm (Phakopsora pachyrhizi) of 100%.

For CCON=C(C)c1cc(F)c(-n2ncc(-c3ccc(C)c(CNC(=O)OC)c3)n2)c(F)c1 [Compound 142], the “Test B disease control rating” value [1] was 86% and the “Test D disease control rating” value (Phakopsora pachyrhizi) was 100%.

For COC(=O)NCc1cc(-c2cnn(-c3c(F)cc(C(C)=NOC(C)C)cc3F)n2)ccc1C [Compound 143], the “Test B disease control rating” value [1] was 74% and the “Test D disease control rating” value (Phakopsora pachyrhizi) was 100%.

COC(=O)NCc1cc(-c2ccn(-c3c(Cl)cc(C(F)(C(F)(F)F)C(F)(F)F)cc3Cl)n2)ccc1C [Compound 138] was tested, and the “Test B disease control rating” value [1] was 74% and the “Test D disease control rating” value (Phakopsora pachyrhizi) was 87%.

For COC(=O)NCc1cc(-c2cnn(-c3c(F)cc(C(C)=O)cc3F)n2)ccc1C [Compound 140], the “Test B disease control rating” value [1] was 41% and the “Test D disease control rating” value (Phakopsora pachyrhizi) was 71%.

For COC(=O)NCc1cc(-c2ccn(-c3c(F)cc(OCC(C)C)cc3F)n2)ccc1C [Compound 12], the “Test B disease control rating” value [1] was 98% and the “Test D disease control rating” value (Phakopsora pachyrhizi) was 100%.

Compound COC(=O)NCc1cc(-c2ccn(-c3c(F)cc(SC(F)F)cc3F)n2)ccc1C [Compound 43, methyl N-[[5-[1-[4-[(difluoromethyl)thio]-2,6-difluorophenyl]-1H-pyrazol-3-yl]-2-methylphenyl]methyl]carbamate] has a pest or weed control at 10 ppm [1] of 100% and a pest or weed control at 10 ppm (Phakopsora pachyrhizi) of 100%.

In the case of CCON=Cc1cc(F)c(-n2ccc(-c3ccc(C)c(CNC(=O)OC)c3)n2)c(F)c1 [Compound 80], the “Test B disease control rating” value [1] is reported as 100% and the “Test D disease control rating” value (Phakopsora pachyrhizi) is reported as 100%.

For COC(=O)NCc1cc(-c2ccn(-c3c(F)cc(OC4COC4)cc3F)n2)ccc1C [Compound 21], the “Test B disease control rating” value [1] was 55% and the “Test D disease control rating” value (Phakopsora pachyrhizi) was 100%.

Compound COC(=O)NCc1cc(-c2ccn(-c3c(F)cc(C4OCCO4)cc3F)n2)ccc1C [Compound 133] has a pest or weed control at 10 ppm [1] of 99% and a pest or weed control at 10 ppm (Phakopsora pachyrhizi) of 100%.

COC(=O)NCc1cc(-c2ccn(-c3c(Br)cc(I)cc3Br)n2)ccc1C [Compound 136] was tested, and the pest or weed control at 10 ppm [1] was 19% and the pest or weed control at 10 ppm (Phakopsora pachyrhizi) was 59%.

In the case of COC(=O)NCc1cc(-c2ccn(-c3c(F)cc(OCC4CCC4)cc3F)n2)ccc1C [Compound 31], the “Test B disease control rating” value [1] is reported as 91% and the “Test D disease control rating” value (Phakopsora pachyrhizi) is reported as 0%.

COC(=O)NCc1cc(-c2ccn(-c3c(Br)cccc3I)n2)ccc1C [Compound 52] gave a pest or weed control at 10 ppm [1] of 0% and a pest or weed control at 10 ppm (Phakopsora pachyrhizi) of 99%.

For COC(=O)NCc1cc(-c2ccn(-c3c(Cl)cc(C4CC4)cc3Cl)n2)ccc1C [Compound 65, methyl N-[[5-[1-(2,6-dichloro-4-cyclopropylphenyl)-1H-pyrazol-3-yl]-2-methylphenyl]methyl]carbamate], the pest or weed control at 10 ppm [1] was 97% and the pest or weed control at 10 ppm (Phakopsora pachyrhizi) was 100%.

With COC(=O)NCc1cc(-c2ccn(-c3c(F)cc(F)cc3F)n2)ccc1C [Compound 16] the pest or weed control at 10 ppm [1] was 99% and the pest or weed control at 10 ppm (Phakopsora pachyrhizi) was 100%.

With COC(=O)NCc1cc(-c2ccn(-c3c(F)cc([N+](=O)[O-])cc3Cl)n2)ccc1C [Compound 37] the pest or weed control at 10 ppm [1] was 26% and the pest or weed control at 10 ppm (Phakopsora pachyrhizi) was 0%.

With COC(=O)NCc1cc(-c2ccn(-c3c(F)cc(C(C)(C)F)cc3F)n2)ccc1C [Compound 97] the “Test B disease control rating” value [1] was 100% and the “Test D disease control rating” value (Phakopsora pachyrhizi) was 100%.

With COC(=O)NCc1cc(-c2ccn(-c3c(F)cc(C=NOC(C)C)cc3F)n2)ccc1C [Compound 82] the “Test B disease control rating” value [1] was 95% and the “Test D disease control rating” value (Phakopsora pachyrhizi) was 100%.

COC(=O)NCc1cc(-c2ccn(-c3c(F)cc(OC(C)(C)C)cc3F)n2)ccc1C [Compound 93] was tested, and the “Test B disease control rating” value [1] was 100% and the “Test D disease control rating” value (Phakopsora pachyrhizi) was 100%.

COC(=O)NCc1cc(-c2ccn(-c3c(C)cccc3Br)n2)ccc1C [Compound 61] showed a pest or weed control at 10 ppm [1] of 68% and a pest or weed control at 10 ppm (Phakopsora pachyrhizi) of 97%.
